According to patent US11872228B2, “Pharmaceutical composition containing thiamine derivative for prevention or treatment of sepsis” (KYUNGPOOK NATIONAL UNIVERSITY INDUSTRY-ACADEMIC COOPERATION …, priority 2021, dated 2024):

Tests used:
Assay type in all cases: cell-based, C57BL/6J male mice
[1] = tested on: TNFα; assay: Inhibition of TNFα expression in LPS-activated dendritic cells (ELISA of supernatants); conditions: dendritic cells; for TNFα (pg/mL): 100 ng/mL LPS 18 h
Description: (§1) The dendritic cells at 1×10^6 cells/mL were treated with benfotiamine and fursultiamine at different concentrations of 0, 1, 10, and 100 and allithiamine at different concentrations of 0, 1, and 10 μM.
Thereafter, the dendritic cells were activated with 100 ng/mL LPS for 18 hours.

[2] = tested on: IL-1β; assay: Inhibition of IL-1β expression in LPS-primed, ATP-treated dendritic cells; conditions: for IL-1β: LPS priming + 5 mM ATP
Description: Bone marrow was extracted from the legs of six- to eight-week old C57BL/6J male mice, and subjected to red blood cell (RBC) lysis, followed by differentiation into dendritic cells in RPMI 1640 medium (10% fetal bovine serum (FBS) and 1% penicillin-streptomycin) along with 20 ng/ml granulocyte-macrophage colony-stimulating factor (GM-CSF) for six days. The dendritic cells at 1×10^6 cells/mL were treated with benfotiamine and fursultiamine at different concentrations of 0, 1, 10, and 100 and allithiamine at different concentrations of 0, 1, and 10 μM.
The dendritic cells were subjected to pro-IL1b priming by the treatment with 500 ng/mL LPS for 3 hours, and then treated with benfotiamine at 0, 10, 50, or 100 and fursultiamine at 0, 10, 50, or 100 μM, for 15 minutes. Then, pro-IL1b was converted into IL-1β through pro-IL1b cleavage, followed by 5 mM ATP treatment for inducing inflammasome formation.

[3] = tested on: CD86; assay: CD86 expression in CD11c+ dendritic cells by flow cytometry; conditions: 50 μM, 100 ng/mL LPS
[4] = tested on: TNFα; assay: Inhibition of TNFα expression in LPS-activated dendritic cells (ELISA of supernatants)
[5] = tested on: CD86; assay: CD86 expression in CD11c+ dendritic cells by flow cytometry
Description: as §1
(§2) The dendritic cells were measured for CD40 and CD86 in CD11c+ cells by flow cytometry, and the results are shown in FIGS. 6A and 6B and Tables 5 and 6.

[6] = tested on: CD40; assay: CD40 expression in CD11c+ dendritic cells by flow cytometry
Description: as §1, §2

[7] = 100 μM, dendritic cells not stimulated by LPS
[8] = 1 μM, dendritic cells, 100 ng/mL LPS
[9] = 10 μM, dendritic cells, 100 ng/mL LPS
[10] = 100 μM, dendritic cells, 100 ng/mL LPS

With `C/C(=C(\CCOP(=O)(O)O)SC(=O)c1ccccc1)N(C=O)Cc1cnc(C)nc1N` [Benfotiamine, benfotiamine] the “TNFα (pg/mL)” value ([1]; 1 μM) was 4,909.05 pg/mL, the “TNFα (pg/mL)” value ([1]; 10 μM) was 4,614.42 pg/mL and the “TNFα (pg/mL)” value ([1]; 100 μM) was 4,696.43 pg/mL. The “Inhibition of the TNFα expression increased by LPS (in words)” value ([1]; up to 100 μM) was “could not inhibit”, the “IL-1β” value ([2]; 10 μM) was 912.2951 pg/mL and the “IL-1β” value ([2]; 50 μM) was 914.9398 pg/mL. The “IL-1β” value ([2]; 100 μM) was 914.2512 pg/mL, the “Inhibition of the IL-1β expression increased by LPS (in words)” value ([2]; up to 100 μM) was “could not inhibit” and the “CD86 (Mean fluorescence intensity; MFI)” value [3] was 2,448 MFI. For the same compound, the “TNFα (pg/mL)” value ([4]; 50 μM, dendritic cells, 100 ng/mL LPS 18 h) was 4,806.97 pg/mL, the “TNFα” value [4, 7] was 84.82 pg/mL and the “CD86 (Mean fluorescence intensity; MFI)” value [5, 8] was 2,734 MFI. For the same compound, the “CD86 (Mean fluorescence intensity; MFI)” value [5, 9] was 2,198 MFI, the “CD86 (Mean fluorescence intensity; MFI)” value [5, 7] was 382 MFI and the “CD86 (Mean fluorescence intensity; MFI)” value [5, 10] was 430 MFI. For the same compound, the “Inhibition of the CD86 expression increased by LPS (in words)” value ([5]; dendritic cells, up to 100 μM) was “could not inhibit”, the “CD40 (Mean fluorescence intensity; MFI)” value [6, 8] was 2,134 MFI and the “CD40 (Mean fluorescence intensity; MFI)” value [6, 9] was 1,975 MFI. For the same compound, the “CD40 (Mean fluorescence intensity; MFI)” value [6, 7] was 248 MFI, the “CD40 (Mean fluorescence intensity; MFI)” value [6, 10] was 1,803 MFI and the “Inhibition of the CD40 expression increased by LPS (in words)” value ([6]; dendritic cells, up to 100 μM) was “could not inhibit”.
